Results as given in the CheMixHub ionic liquid set.

Assay: xn = mol fraction of the nth substance listed

CCCCCCCC[n+]1ccc2ccccc2c1.O=S(=O)([N-]S(=O)(=O)C(F)(F)F)C(F)(F)F + Cc1ccccc1
101 kPa
Details	viscosity [mPa·s]
298.15 K, x2 = 0.0818	308
298.15 K, x2 = 0.4775	50.6
298.15 K, x2 = 0.4902	48.5
308.15 K, x2 = 0.0818	162.6
308.15 K, x2 = 0.2746	81.6
308.15 K, x2 = 0.4295	41.74
308.15 K, x2 = 0.4775	32.56
318.15 K, x2 = 0.1949	67
318.15 K, x2 = 0.6148	11.19
318.15 K, x2 = 0.8672	2.19
328.15 K, x2 = 0.3638	25.85
328.15 K, x2 = 0.4295	19.34
328.15 K, x2 = 0.5467	12.11
328.15 K, x2 = 0.7004	5.51
338.15 K, x2 = 0	44.8
338.15 K, x2 = 0.4775	11.71

CC[n+]1ccn(C)c1.O=S(=O)([O-])C(F)(F)F + F[B-](F)(F)F.[Li+]
101 kPa, x1 = 1
Details	electrical conductivity [S/m]
288.15 K	0.605
298.15 K	0.859
333.15 K	2.24

CC[n+]1ccn(C)c1.O=S(=O)([O-])C(F)(F)F + F[P-](F)(F)(F)(F)F.[Li+]
101 kPa, x1 = 1
Details	electrical conductivity [S/m]
288.15 K	0.605
298.15 K	0.859
333.15 K	2.24

C=C[n+]1ccn(CCCC)c1.N[C@@H](CO)C(=O)[O-] + O
101.3 kPa
Details	electrical conductivity [S/m]	viscosity [mPa·s]
293.15 K, x1 = 0.3	–	17
303.15 K, x1 = 0.1	1.37	6
303.15 K, x1 = 0.9	–	1832
323.15 K, x1 = 1	0.017	4800
333.15 K, x1 = 0.5	–	38.96
343.15 K, x1 = 1	–	1737
353.15 K, x1 = 0.1	–	4.35
353.15 K, x1 = 0.5	–	35.95
353.15 K, x1 = 1	–	1154

CC(=O)[O-].Cn1cc[n+](C)c1 + O
293.15 K, 101.3 kPa
Details	electrical conductivity [S/m]
x2 = 0	0.275
x2 = 0.0799	0.561
x2 = 0.1095	0.863
x2 = 0.2767	1.457
x2 = 0.4986	2.733
x2 = 0.5673	3.384
x2 = 0.7029	5.091
x2 = 0.7484	5.772
x2 = 0.8651	7.166
x2 = 0.8897	6.824
x2 = 0.9043	5.765
x2 = 0.9388	2.782
x2 = 0.9483	2
x2 = 0.9579	1.213
x2 = 0.9681	0.729

CCCCCCCCCCCCCC[P+](CCCCCC)(CCCCCC)CCCCCC.N#C[N-]C#N + O
viscosity [mPa·s], 100 kPa
Details	298.15 K	303.15 K
x1 = 0.5511	183	–
x1 = 0.8444	440	328

CCCCCCCCCC[n+]1ccn(C)c1.O=S(=O)([O-])C(F)(F)C(F)(F)C(F)(F)C(F)(F)F + O
298.15 K, 100 kPa
Details	electrical conductivity [S/m]
x1 = 1.66e-06	0.00043
x1 = 2.36e-06	0.00063
x1 = 3.06e-06	0.00086
x1 = 4.11e-06	0.00114
x1 = 5.17e-06	0.00146
x1 = 5.95e-06	0.00163
x1 = 6.65e-06	0.00186
x1 = 7.44e-06	0.00212
x1 = 8.14e-06	0.00237
x1 = 8.76e-06	0.00252
x1 = 9.8e-06	0.00283
x1 = 1.042e-05	0.003
x1 = 1.103e-05	0.00323
x1 = 1.164e-05	0.00343
x1 = 1.234e-05	0.00363
x1 = 1.323e-05	0.00389
x1 = 1.384e-05	0.00412
x1 = 1.445e-05	0.00429
x1 = 1.506e-05	0.00446
x1 = 1.586e-05	0.00466
x1 = 1.638e-05	0.00486
x1 = 1.699e-05	0.00506
x1 = 1.779e-05	0.00529
x1 = 1.831e-05	0.00541
x1 = 1.901e-05	0.00569
x1 = 1.971e-05	0.00578
x1 = 2.058e-05	0.00601
x1 = 2.171e-05	0.00621
x1 = 2.26e-05	0.00635
x1 = 2.33e-05	0.00649
x1 = 2.443e-05	0.00669
x1 = 2.512e-05	0.00678
x1 = 2.618e-05	0.00695
x1 = 2.714e-05	0.00703
x1 = 2.793e-05	0.0072
x1 = 2.907e-05	0.00729
x1 = 3.011e-05	0.0074
x1 = 3.116e-05	0.00746
x1 = 3.229e-05	0.00763
x1 = 3.361e-05	0.00777
x1 = 3.526e-05	0.00791
x1 = 3.649e-05	0.008
x1 = 3.815e-05	0.00814
x1 = 3.971e-05	0.00825
x1 = 4.103e-05	0.00831

CCCCCCCC[n+]1cccc(C)c1.F[B-](F)(F)F + O
298.15 K, 101 kPa
Details	electrical conductivity [S/m]
x1 = 4.685e-05	0.024
x1 = 0.0001279	0.063
x1 = 0.000272	0.127
x1 = 0.0003045	0.142
x1 = 0.0004197	0.19
x1 = 0.0005619	0.248
x1 = 0.0007023	0.308
x1 = 0.0007922	0.33
x1 = 0.0008948	0.377
x1 = 0.0009955	0.402
x1 = 0.00103	0.408
x1 = 0.001107	0.419
x1 = 0.001265	0.42
x1 = 0.00128	0.42
x1 = 0.001371	0.421
x1 = 0.001459	0.421
x1 = 0.001608	0.422
x1 = 0.00177	0.422
x1 = 0.001919	0.422
x1 = 0.002066	0.423
x1 = 0.002642	0.425

CCCCCC[n+]1ccn(C)c1.N[C@@H](CCC(=O)O)C(=O)[O-] + O
298.15 K, 100 kPa
Details	electrical conductivity [S/m]
x1 = 0.001278	0.2317
x1 = 0.002014	0.338
x1 = 0.00309	0.46
x1 = 0.004145	0.577
x1 = 0.004824	0.676
x1 = 0.00584	0.783
x1 = 0.007281	0.923
x1 = 0.008947	1.011
x1 = 0.01064	1.107
x1 = 0.01274	1.2
x1 = 0.01517	1.26
x1 = 0.01798	1.28

CC[NH+](C)CC.CS(=O)(=O)[O-] + O
Details	viscosity [mPa·s]
293.1 K, 101 kPa, x2 = 0.707	21
298.15 K, 100 kPa, x1 = 0.0967	4.51
298.15 K, 100 kPa, x1 = 0.4263	31.1
298.15 K, 100 kPa, x1 = 0.6771	69.7
303.15 K, 100 kPa, x1 = 0.0967	3.94
303.15 K, 100 kPa, x1 = 0.3246	16.6
303.15 K, 100 kPa, x1 = 0.6771	55.2
308.15 K, 100 kPa, x1 = 0.0155	1.04
308.15 K, 100 kPa, x1 = 0.5018	27.9
308.15 K, 100 kPa, x1 = 0.5783	34.2
308.15 K, 100 kPa, x1 = 0.7782	55.3
313.1 K, 101 kPa, x2 = 0.372	27.27
313.15 K, 100 kPa, x1 = 0.0571	1.79
313.15 K, 100 kPa, x1 = 0.3246	11.8
313.15 K, 100 kPa, x1 = 0.4263	18
318.15 K, 100 kPa, x1 = 0.1582	4.46
328.15 K, 100 kPa, x1 = 0.1582	3.46
328.15 K, 100 kPa, x1 = 0.206	4.6
328.15 K, 100 kPa, x1 = 0.5018	14.1
328.15 K, 100 kPa, x1 = 0.7782	25.4
333.1 K, 101 kPa, x2 = 0.372	13.95
333.1 K, 101 kPa, x2 = 0.507	9.98
333.15 K, 100 kPa, x1 = 0.0967	1.97
333.15 K, 100 kPa, x1 = 0.3246	6.65
333.15 K, 100 kPa, x1 = 0.5018	12.2
338.15 K, 100 kPa, x1 = 0.0571	1.11
338.15 K, 100 kPa, x1 = 0.3246	5.84
338.15 K, 100 kPa, x1 = 0.4263	8.21
338.15 K, 100 kPa, x1 = 0.5018	10.3
338.15 K, 100 kPa, x1 = 0.5783	12.2
338.15 K, 100 kPa, x1 = 0.6771	15.3
353.1 K, 101 kPa, x2 = 0.449	6.83
353.1 K, 101 kPa, x2 = 0.624	4.58

CC[n+]1ccn(C)c1.O=S(=O)([O-])C(F)(F)F + O
101 kPa
Details	electrical conductivity [S/m]	viscosity [mPa·s]
293.15 K, x1 = 0.004	–	1.07
293.15 K, x1 = 0.029	–	1.67
293.15 K, x1 = 0.041	–	2.01
293.15 K, x1 = 0.463	–	13.6
297.45 K, x2 = 0.304	1.17	–
298.15 K, x1 = 0.005	1.4	0.99
298.15 K, x1 = 0.012	2.3	1.11
298.15 K, x1 = 0.017	–	1.23
298.15 K, x1 = 0.041	–	1.78
298.15 K, x1 = 0.064	4.4	2.17
298.15 K, x1 = 0.137	4.6	3.71
303.15 K, x1 = 0.008	–	0.92
303.15 K, x1 = 0.017	–	1.09
303.15 K, x1 = 0.137	–	3.27
303.15 K, x1 = 0.391	–	8.23
303.65 K, x2 = 0.304	1.46	–
305.35 K, x2 = 0.304	1.58	–
313.15 K, x1 = 0.004	–	0.7
313.15 K, x1 = 0.017	3.9	0.89
313.15 K, x1 = 0.029	5.1	1.05
313.15 K, x1 = 0.137	6.3	2.58

O=S(=O)([O-])C(F)(F)F.[Li+] + O
Details	electrical conductivity, 298.1 K [S/m]	electrical conductivity, 298.15 K [S/m]	electrical conductivity, 308.15 K [S/m]	electrical conductivity, 318.15 K [S/m]	electrical conductivity, 328.15 K [S/m]	viscosity, 298.15 K [mPa·s]	viscosity, 308.15 K [mPa·s]	viscosity, 318.15 K [mPa·s]	viscosity, 328.15 K [mPa·s]
100 kPa, x1 = 0.1122	–	7.3	8.94	10.9	12.7	3.7	2.9	2.27	1.85
100 kPa, x1 = 0.1783	–	4.63	5.73	6.99	8.17	9.2	6.9	5.3	4.2
100 kPa, x1 = 0.2388	–	2.6	3.26	4.06	4.89	21.9	16	11.1	8.6
100 kPa, x1 = 0.2541	–	1.98	2.53	3.16	3.92	31.8	22.6	15.9	12.2
100 kPa, x1 = 0.2743	–	1.56	2.04	2.59	3.2	47.2	32.9	23.9	18.1
101 kPa, x1 = 0.01944	4.69	–	–	–	–	–	–	–	–
101 kPa, x1 = 0.1527	4.69	–	–	–	–	–	–	–	–
101 kPa, x1 = 0.2649	1.34	–	–	–	–	–	–	–	–
101 kPa, x1 = 0.3106	0.51	–	–	–	–	–	–	–	–
